Each structure is given as a SMILES string. pIC50: −log10 of the molar value. The source made the active and inactive calls. The calls are words filed in the database; no cut-off is given here.

Data on one compound can be found in ChEMBL document CHEMBL1147023, “(R)-sila-venlafaxine: a selective noradrenaline reuptake inhibitor for the treatment of emesis” (Bioorg Med Chem Lett, 2006).

In series [1] the target is T1, Voltage-gated L-type calcium channel (Homo sapiens, UniProt Q13936+Q13698+Q01668+O60840). The series can be described thus: Inhibition of verapamil sensitive L type calcium channel by radioligand […] assay. The class given is protein assay.
Series [2] deals with T1, Voltage-gated L-type calcium channel. The series can be described thus: Inhibition of diltiazem sensitive L type calcium channel by radioligand […] assay. The class given is protein assay.
The target of series [3] is Sodium-dependent noradrenaline transporter (Homo sapiens, UniProt P23975). As to the kind of experiment: Inhibition of noradrenaline reuptake at human recombinant noradrenaline transporter.
Chain of Sodium-dependent noradrenaline transporter (P23975 whole entry): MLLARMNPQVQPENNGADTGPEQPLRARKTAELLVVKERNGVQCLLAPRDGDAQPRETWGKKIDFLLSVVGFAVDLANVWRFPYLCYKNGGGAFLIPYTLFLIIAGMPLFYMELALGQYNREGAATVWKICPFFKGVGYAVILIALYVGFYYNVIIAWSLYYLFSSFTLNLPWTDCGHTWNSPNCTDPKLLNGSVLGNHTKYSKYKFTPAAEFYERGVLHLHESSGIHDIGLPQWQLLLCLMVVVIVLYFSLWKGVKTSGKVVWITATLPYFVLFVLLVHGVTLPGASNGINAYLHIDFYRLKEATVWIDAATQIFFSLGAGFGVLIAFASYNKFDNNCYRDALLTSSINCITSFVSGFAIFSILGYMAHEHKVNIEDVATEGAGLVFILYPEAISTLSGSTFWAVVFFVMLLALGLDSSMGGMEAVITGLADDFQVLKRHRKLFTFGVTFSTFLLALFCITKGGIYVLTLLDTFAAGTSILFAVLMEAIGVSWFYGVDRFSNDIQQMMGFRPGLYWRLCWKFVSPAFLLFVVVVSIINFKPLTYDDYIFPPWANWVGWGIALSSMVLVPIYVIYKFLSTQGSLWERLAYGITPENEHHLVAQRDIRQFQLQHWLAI
For series [4], the target named is Sodium-dependent serotonin transporter (Homo sapiens, UniProt P31645). The series can be described thus: Inhibition of serotonin reuptake at human recombinant serotonin transporter.
Chain of Sodium-dependent serotonin transporter (P31645 whole entry): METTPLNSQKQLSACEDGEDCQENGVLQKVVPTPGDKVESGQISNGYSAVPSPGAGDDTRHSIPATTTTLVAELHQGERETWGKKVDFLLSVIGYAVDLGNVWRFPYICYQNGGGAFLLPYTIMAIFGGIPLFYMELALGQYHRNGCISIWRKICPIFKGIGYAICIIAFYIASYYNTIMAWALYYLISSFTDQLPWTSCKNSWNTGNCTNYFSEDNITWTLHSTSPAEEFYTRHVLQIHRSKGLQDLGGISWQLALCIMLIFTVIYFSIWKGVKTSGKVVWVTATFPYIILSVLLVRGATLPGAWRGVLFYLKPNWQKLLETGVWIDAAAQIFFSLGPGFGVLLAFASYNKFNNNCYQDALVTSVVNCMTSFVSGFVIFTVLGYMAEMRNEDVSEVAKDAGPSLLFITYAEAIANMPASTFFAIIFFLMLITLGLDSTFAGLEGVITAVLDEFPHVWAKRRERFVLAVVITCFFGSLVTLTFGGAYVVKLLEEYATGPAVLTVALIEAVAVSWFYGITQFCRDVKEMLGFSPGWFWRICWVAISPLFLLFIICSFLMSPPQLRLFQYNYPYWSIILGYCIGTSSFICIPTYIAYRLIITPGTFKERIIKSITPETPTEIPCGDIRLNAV
Series [5] in a line: Inhibitory activity against site 2 of sodium channel by radioligand […] assay.
Series [6] concerns Mustela putorius furo. The series can be described thus: Activity against morphine-induced emesis in ferret at 50 mg/kg. The series is classed as functional, organism-based. Further details: dose 50 mg/kg.
The test system of series [7] is Mustela putorius furo. As to the kind of experiment: Inhibition of morphine-induced emesis in ferret at 5 mg/kg. The series is classed as functional.
In series [8] the test system is Mustela putorius furo. As to the kind of experiment: Activity against morphine-induced emesis in ferret at 1 mg/kg. Set-up: dose 1 mg/kg. The series is classed as functional, organism-based.
Series [9] can be described thus: Plasma half life in ferret at 5 mg/kg, po. The class given is ADME, organism-based, Mustela putorius furo. Set-up: dose 5 mg/kg, route oral.
Series [10] in a line: Cmax in ferret at 5 mg/kg, po. The class given is ADME, organism-based, Mustela putorius furo. Further details: dose 5 mg/kg, route oral. The note with it: in vivo.

On to `COc1ccc([C@H](CN(C)C)[Si]2(O)CCCCC2)cc1`, for which the IC50 was determined as 8.6 µM in [1] and 2.7 µM in [2]. For the same compound, the pIC50 is 6.70 in [3], 5.38 in [4] and 5.29 in [5]. Also, the outcome in [6] was Active. In series [7], the inhibition in vivo at 5 mg/kg turned out to be 93%. Moreover, in [8], the outcome was inactive. In series [9], this compound had a half-life of 1.1 h. This compound came in with a Cmax in series [10] of 225 ng/mL.
